Data reported in patent US20210290680A1, “METHODS AND COMPOSITIONS FOR MODULATING CELLULAR AGING” (Dorian Therapeutics, Inc., priority 2019, published 2021).

Tests used:
[1] = system: activated primary T cells; assay: Navitoclax-induced cell death (Sytox-negative cell count after 72 hours); assay type: cell-based, human; conditions: Younger T cells (day 12) compared with Older T cells (day 24)
Procedure: Activated primary T cells were treated with the indicated amount of Navitoclax. Navitoclax is a senolytic drug selectively targeting senescent cells (Zhu et al., Aging Cell, 2016). After 72 hours, Sytox-negative T cells were counted by flow cytometry using MACSQuant (Myltenyi Biotec). […] In each experiment two different primary T cell cultures were tested for each condition (four replicas for each condition). DMSO is a negative control. Navitoclax (cat #HY-10087) was purchased from MCE. Primary T cells were activated as described (Example 3) and transduced with a lentivirus encoding either a shUSP16 or a non-targeting shRNA (shC). T cells were then treated with the indicated amount of Navitoclax. After 72 hours, Sytox-negative GFP+ cells were counted, and the numbers of dead cells were calculated as 100%−(#treated/#untreated) cells. Two different time points were tested (day 12, day 22) with two different primary T cell cultures (four replicas per each condition).

primary T cells = assay: Stem cell memory T cell phenotype by flow cytometry (CD45RA+CD62L+); assay type: cell-based, human; conditions: CRISPR knockout, day 15 post-activation
Procedure: Primary T cells were activated as described (Example 3), transduced with a lentivirus encoding for either a shUSP16 or a non-targeting shRNA (Ctrl) and sorted for GFP on day 8. Cells were cultured in the presence of IL-2 and their phenotype was analyzed at day 20. Cells were stained for CD4-PerCP-5.5 or CD8-BV510, CD62L-Allophycocyanin, CD45RA-BV510 or PE-Cy7 (Biolegend). Naïve or stem cell memory T cells (TNa/SCM) were identified as Sytox^− GFP^+CD45RA^+CD62L^+. Number of TNa/SCM was calculated as (#CD4 or CD8 T cells*TNa/SCMpercentage)/100. Flow cytometry was performed on the MACQuant (Myltenyi Biotec) and the data analyzed with FlowJo (shCtrl vs shUSP CD4: 0.4978 vs 0.7915, p=0.0673 and CD8: 2.469 vs 4.984, p=0.00392, n=7). Downregulation of USP16 expression increases the number of CD4+CD45RA+CD62L+(FIG. 11A) and CD8+CD45RA+CD62L+(FIG. 11B) cells in culture by 1.7 (p=0.0205) and 1.9 (p=0.0097) times, respectively.
Primary T cells were activated as described (Example 3), transduced with a lentivirus encoding either a shUSP16 #1, shUSP16 #2 or a non-targeting shRNA (shCtrl) and cells were selected with puromycin at day 6. At day 15 cell were collected and analyzed by qPCR for the expression of LEF1 (FIG. 16A) and TCF7 (FIG. 16B), downstream regulators of the WNT pathway. At day 20, cells were stained for CD4-PE, CD8-BV510, CD62L-Allophycocyanin and CD45RA-APC-Cy7 (Biolegend). Stem cell memory T cells (Tscm) were identified as Sytox^− GFP^+CD45RA^+CD62L^+, central memory T cells (Tcm) as Sytox^−GFP^+CD45RA^−CD62L^+, effector memory T cells (Tem) as Sytox^−GFP^+CD45RA^−CD62L^−, and terminal effector T cell (Teff) as Sytox^−GFP^+CD45RA^+CD62L^− (FIG. 17A). Cells were gated on the CD8 population. The specific increase of Tscm was shown as phenotype ratio (FIG. 17B).
Primary T cells were activated as described (Example 3). At Day 6 post-activation, dynabeads were removed and T cells electroporated using the Neon Transfection System (ThermoFisher) with a 2.5:1 ratio sgRNA:Cas9. The experiment was performed following the protocol optimized for primary T cell by Synthego (CRISPR Editing Human Primary CD4+ T cells with RNPs using Neon Electroporation Protocol, 2018 version). The sgRNA used are the following: gUSP16 #1 5′-[…]-3′ (SEQ ID NO: 10) and gSynthego that comprises 3 different sgRNAs (gRNA-A: 5′-[…] 3′ (SEQ ID NO: 11); gRNA-B: 5′-[…]-3′ (SEQ ID NO: 12); gRNA-C: 5′-[…]-3′ (SEQ ID NO: 13)). Control T cells, identified as Mock, were electroporated but no Cas9:sgRNA mixture was added. […] At day 15 post-activation, cells were stained for CD4-PE, CD8-BV510, CD62L-Allophycocyanin and CD45RA-APC-Cy7 (Biolegend). Stem cell memory T cells (Tscm) were identified as Sytox^−GFP^+CD45RA^+CD62L^+ and graphed as ratio compared to mock cells (FIG. 22). The experiment was repeated using primary T cells obtained from buffy coats of 2 different healthy donors.
Primary T cells were activated as described (Example 3), transduced with a lentivirus encoding for either a CD19.CAR or a GD2.CAR co-expressing shUSP16 #1, shUSP16 #2 or a scrambled shRNA (Control). At day 15, GD2.CAR and CD19.CAR T cells were stained for EGFR-AF488 (R&D), CD3-PE, CD8-BV510, CD62L-Allophycocyanin and CD45RA-APC-Cy7 (Biolegend). Stem cell memory T cells (Tscm) were identified as FITC^+CD45RA^+CD62L^+, central memory T cells (Tcm) as FITC^+CD45RA^−CD62L^+, effector memory T cells (Tem) as FITC^+CD45RA^−CD62L^−, and terminal effector T cell (Teff) as FITC^+CD45RA^+CD62L^−. Cells were gated on the CD8 population. The specific increase of Tscm was shown as phenotype ratio (FIGS. 28A and 28B).

Molecule	sensitivity to Navitoclax-induced cell death [1]	stem cell memory T cells, ratio compared to mock cells (primary T cells)
CC1(C)CCC(c2ccc(Cl)cc2)=C(CN2CCN(c3ccc(C(=O)NS(=O)(=O)c4ccc(N[C@H](CCN5CCOCC5)CSc5ccccc5)c(S(=O)(=O)C(F)(F)F)c4)cc3)CC2)C1 [Navitoclax]	less sensitive	–
gUSP16 #1: sgRNA 5′-UGGCGUCAGAUAGUGCUUCA-3′ (SEQ ID NO: 10), electroporated with Cas9 (listed as RNA, chemistry not given here)	–	1.178
gSynthego: comprises 3 different sgRNAs (gRNA-A, gRNA-B, gRNA-C; SEQ ID NO: 11-13), electroporated with Cas9 (guide 1 GUGUGCAGACACAUUAGAAA; guide 2 UAUUGUCAGUCUUACAGUCU; guide 3 GUUUGGCUGUGUCUUAAAUG; listed as RNA, chemistry not given here)	–	1.49
